# Patent US9138466B2, “Factor H for transplantation” (Baxter International Inc., priority 2013, dated 2015)
# “And” between values parts separate entries of the source, which are not always exact repeats. Equal entries are not always repeated. Marks after values point to notes of the source that are not given here.
# Tests used:
# Format in all cases: in vivo
# [1] = Mouse CAIA, body weight and tolerability (Example 4)
# Experimental: Balb C mice (n=10 per cohort) were used to determine the efficacy of Factor H (FH) during transplant rejection. The mice were treated with ArthritoMAb (anti-collagen) antibody cocktail (2 mg, i.v.) on day 1, followed 7 days later with an injection of LPS (50 μg, i.p.). On day 8, hind paw volumes were measured for each animal and distributed to various treatment groups.
# Hind paw volumes were measured on day 8, 11, 12, 13, 15, 19 and 22 (endpoint). The age at start date was 7 to 9 weeks. Body weights were measured bi-weekly to the endpoint (Table 4). At the endpoint, tissue samples were processed for histology and submitted to a pathologist for independent analysis. Sampling 1 was performed at the endpoint. The hind limbs were preserved in 10% formalin. Sampling 2 was performed at the endpoint for group 4 animals. Blood was collected by terminal cardiac puncture. The blood was processed for anti-coagulant. The kidneys were additionally preserved in formalin and followed with 70% EtOH. Samples were scored for inflammation, pannus (granulation tissue), cartilage damage, bone resorption and exostosis (Table 5).
# [2] = system: collagen antibody-induced arthritis in Balb C mice; assay: Mouse CAIA, clinical score (Example 4); design: key to Mean Maximum Clinical Score: scored 0 to 60, sum of 4 limbs
# [3] = system: collagen antibody-induced arthritis in Balb C mice; assay: Mouse CAIA, histopathology of hind limbs (ankle, H & E) (Example 4); details: for Composite Histopathaligy Score / Score From H & E, Bone Resorption / Score From H & E, Cartilage Damage / Score From H & E, Inflammation / Score From H & E, Pannus / Score From H & E, Periosteal Exostotic Changes: ankle; for Score From H & E, Bone Resorption / Score From H & E, Cartilage Damage / Score From H & E, Inflammation / Score From H & E, Pannus / Score From H & E, Periosteal Exostotic Changes: score 0 = normal to 5 = severe
# [4] = system: collagen antibody-induced arthritis in Balb C mice; assay: Mouse CAIA, hind paw volume / footpad swelling (Example 4); design: Mean Disease Burden / Hind Limb Volume, Mean Diff. / Total Disease, Mean Diff.: unit not given here; details: for Total Footpad Thickness, Day of Study 8: day 8; for Total Footpad Thickness, Day of Study 11: day 11; for Total Footpad Thickness, Day of Study 12: day 12; for Total Footpad Thickness, Day of Study 13: day 13; for Total Footpad Thickness, Day of Study 15: day 15; for Total Footpad Thickness, Day of Study 19: day 19; for Total Footpad Thickness, Day of Study 22: day 22; for % Disease Suppression: footpad thickness AUC vs vehicle; for Total Disease Burden (AUC): footpad thickness days 8-22, in mL·day
# [5] = Dunn's Multiple Comparison Test, G1 vehicle vs treatment
# [6] = individual animal, listed as Group 3
# [7] = Dunnett's Multiple Comparison Test, G1 vehicle vs treatment
# [8] = Dunnett's Multiple Comparison Test, vehicle vs treatment
substance,measurement,setting,value
Etanercept,"Body Weight, Wt (g), Mean","[1]; day 1, group mean n=10, before dosing start (day 8)",17.3 g
same,"Body Weight, Wt","[1]; day 1, individual animal, before dosing start (day 8)",16.7 g and 17.3 g and 16.5 g (2×) and 18 g (2×) and 17.7 g and 17.5 g and 16.8 g and 17.6 g
same,"Body Weight, Wt (g), Mean","[1]; day 5, group mean n=10, before dosing start (day 8)",17.7 g
same,"Body Weight, Wt","[1]; day 5, individual animal, before dosing start (day 8)",18.5 g (2×) and 17.4 g (2×) and 18.2 g and 16.6 g and 17.3 g and 17 g and 18.1 g and 18.3 g
same,"Body Weight, Wt (g), Mean","[1]; day 8, group mean n=10",16.3 g
same,"Body Weight, Wt","[1]; day 8, individual animal",16.5 g and 16.4 g (2×) and 16.1 g (2×) and 15.7 g (2×) and 16.2 g and 16.6 g and 17.1 g
same,"Body Weight, Wt (g), Mean","[1]; day 12, group mean n=10",17 g
same,"Body Weight, Wt","[1]; day 12, individual animal",16.6 g and 16.7 g (2×) and 17.8 g (2×) and 17.9 g and 15.5 g and 17.1 g and 17.7 g
same,"Body Weight, Wt (g), Mean","[1]; day 15, group mean n=10",17.4 g
same,"Body Weight, Wt","[1]; day 15, individual animal",17.1 g and 17.8 g and 17 g and 17.7 g and 16.6 g and 18 g (2×) and 17.9 g and 16.2 g and 17.6 g
same,"Body Weight, Wt (g), Mean","[1]; day 19, group mean n=10",17.9 g
same,"Body Weight, Wt","[1]; day 19, individual animal",18.3 g (2×) and 17.7 g and 18.4 g and 14.6 g and 18.8 g and 18.6 g (2×) and 16.5 g and 19.1 g
same,"Body Weight, Wt (g), Mean","[1]; day 22, group mean n=10",18.1 g
same,"Body Weight, Wt","[1]; day 22, individual animal",18.8 g and 18.3 g and 17.8 g and 18.7 g and 15.8 g and 18 g and 18.2 g and 17.3 g and 18.6 g and 19.6 g
same,Mean Body Weigh at Nadir,"[1]; lowest group mean body weight as % change from day 1, vehicle −8.0%",−5.7%
same,"Clinical Score, Difference in rank sum",[2]; [5],3.55
same,"Clinical Score, Significant? P < 0.05?",[2]; [5],No
same,"Clinical score, Mean","[2]; day 8, group mean n=10",5.50
same,Clinical score,"[2]; day 8, individual animal",0 (5×) and 15 and 10 (4×)
same,"Clinical score, Mean","[2]; day 11, group mean n=10",19.60
same,Clinical score,"[2]; day 11, individual animal",12 (2×) and 34 and 28 and 4 and 15 and 43 and 11 and 10 and 27
same,"Clinical score, Mean","[2]; day 12, group mean n=10",37.10
same,Clinical score,"[2]; day 12, individual animal",32 and 50 (2×) and 45 and 27 and 35 and 26 and 20 and 34 and 52
same,"Clinical score, Mean","[2]; day 13, group mean n=10",35.50
same,Clinical score,"[2]; day 13, individual animal",32 and 50 and 45 (2×) and 21 and 35 and 30 and 15 and 34 and 48
same,"Clinical score, Mean","[2]; day 15, group mean n=10",31.50
same,Clinical score,"[2]; day 15, individual animal",32 and 49 and 21 and 48 and 25 and 45 and 15 and 10 and 24 and 46
same,"Clinical score, Mean","[2]; day 19, group mean n=10",28.40
same,Clinical score,"[2]; day 19, individual animal",32 and 48 and 34 and 25 and 5 and 45 and 20 and 10 and 26 and 37
same,"Clinical score, Mean","[2]; day 22, group mean n=10",25.70
same,Clinical score,"[2]; day 22, individual animal",32 and 41 and 34 and 18 (3×) and 40 and 10 and 23 and 26
same,"Day (of Max Clin Score), Mean","[2]; group line 'Mean', day of study",12.00
same,"Max Clin Score, Mean",[2]; group mean n=10,38.60
same,Max Clin Score,[2]; individual animal,32 and 50 (2×) and 45 and 48 and 35 and 30 and 20 and 34 and 52
same,Day (of Max Clin Score),"[2]; individual animal, day of study",12 (8×) and 22 and 16
same,Mean Maximum Clinical Score,"[2]; scored from 0 to 60, sum of 4 limbs, vehicle 45.4",39.6^ns
same,"Cartilage, Difference in rank sum",[3]; [5],−1.5
same,"Cartilage, Significant? P < 0.05?",[3]; [5],No
same,"Composite, Difference in rank sum",[3]; [5],2.1
same,"Composite, Significant? P < 0.05?",[3]; [5],No
same,"Exostosis, Difference in rank sum",[3]; [5],5.8
same,"Exostosis, Significant? P < 0.05?",[3]; [5],No
same,"Inflammation, Difference in rank sum",[3]; [5],3.6
same,"Inflammation, Significant? P < 0.05?",[3]; [5],No
same,"Pannus, Difference in rank sum",[3]; [5],0.3
same,"Pannus, Significant? P < 0.05?",[3]; [5],No
same,Composite Histopathaligy Score,[3]; group mean,6.0 ± 2.1
same,"Score From H & E, Bone Resorption",[3]; group mean,1.0 ± 0.4
same,"Score From H & E, Cartilage Damage",[3]; group mean,0.7 ± 0.3
same,"Score From H & E, Inflammation",[3]; group mean,1.5 ± 0.5
same,"Score From H & E, Pannus",[3]; group mean,1.4 ± 0.5
same,"Score From H & E, Periosteal Exostotic Changes",[3]; group mean,1.4 ± 0.8
same,"Score From H & E, Bone Resorption",[3]; [6],1 and 0 (6×) and 3 (3×)
same,"Score From H & E, Cartilage Damage",[3]; [6],1 (3×) and 0 (5×) and 2 (2×)
same,"Score From H & E, Inflammation",[3]; [6],1 (4×) and 3 (3×) and 0 (2×) and 2
same,"Score From H & E, Pannus",[3]; [6],1 and 0 (5×) and 4 (2×) and 2 (2×)
same,"Score From H & E, Periosteal Exostotic Changes",[3]; [6],4 and 0 (6×) and 1 and 3 (2×)
same,Composite Histopathaligy Score,[3]; [6],11 (2×) and 0 (5×) and 16 and 15 and 1
same,Bone Resorption,"[3]; histopathology summary, graded 1-5, vehicle 0.6 ± 0.3",1.0 ± 0.4^ns
same,Pannus,"[3]; histopathology summary, graded 1-5, vehicle 1.0 ± 0.3",1.4 ± 0.5^ns
same,Inflammation,"[3]; histopathology summary, graded 1-5, vehicle 2.0 ± 0.5",1.5 ± 0.5^ns
same,Exostosis,"[3]; histopathology summary, graded 1 to 5, vehicle 2.6 ± 0.5",1.4 ± 0.6^ns
same,Cartilage Damage,"[3]; histopathology summary, vehicle 0.5 ± 0.2",0.7 ± 0.3^ns
same,Composite Score,"[3]; histopathology summary, vehicle 6.7 ± 1.7",6.0 ± 2.1^ns
same,Mean Disease Burden,"[4]; AUC of combined footpad volume over baseline, days 8 to 22, group mean, vehicle 1.93",0.74**
same,"Total Disease, 95% CI of diff",[4]; [7],0.441 to 1.94
same,"Total Disease, Mean Diff.",[4]; [7],1.19
same,"Total Disease, Significant? P < 0.05?",[4]; [7],Yes
same,"Total Disease, Summary",[4]; [7],** (**= P < 0.01)
same,"Total Disease, q",[4]; [7],3.9
same,"Hind Limb Volume, 95% CI of diff",[4]; [8],0.02587 to 0.1370
same,"Hind Limb Volume, Mean Diff.",[4]; [8],0.08143
same,"Hind Limb Volume, Significant? P < 0.05?",[4]; [8],Yes
same,"Hind Limb Volume, Summary",[4]; [8],** (**= P < 0.01)
same,"Hind Limb Volume, q",[4]; [8],3.674
same,"Total Footpad Thickness, Day of Study 8","[4]; group mean, n 10",0.35 mL
same,"Total Footpad Thickness, Day of Study 8",[4]; individual animals (A# 1-10),0.41 mL and 0.4 mL and 0.38 mL and 0.37 mL and 0.35 mL and 0.34 mL and 0.32 mL and 0.31 mL and 0.3 mL (2×)
same,"Total Footpad Thickness, Day of Study 11","[4]; group mean, n 10",0.44 mL
same,"Total Footpad Thickness, Day of Study 11",[4]; individual animals (A# 1-10),0.49 mL and 0.44 mL (2×) and 0.37 mL and 0.38 mL and 0.39 mL and 0.4 mL (2×) and 0.45 mL and 0.41 mL
same,"Total Footpad Thickness, Day of Study 12","[4]; group mean, n 10",0.44 mL
same,"Total Footpad Thickness, Day of Study 12",[4]; individual animals (A# 1-10),0.58 mL and 0.44 mL and 0.35 mL and 0.42 mL and 0.48 mL and 0.49 mL and 0.45 mL and 0.39 mL (2×) and 0.4 mL
same,"Total Footpad Thickness, Day of Study 13","[4]; group mean, n 10",0.42 mL
same,"Total Footpad Thickness, Day of Study 13",[4]; individual animals (A# 1-10),0.58 mL and 0.41 mL (2×) and 0.36 mL and 0.33 mL and 0.49 mL and 0.39 mL and 0.35 mL and 0.43 mL and 0.4 mL
same,"Total Footpad Thickness, Day of Study 15","[4]; group mean, n 10",0.38 mL
same,"Total Footpad Thickness, Day of Study 15",[4]; individual animals (A# 1-10),0.45 mL and 0.48 mL and 0.34 mL and 0.37 mL and 0.43 mL and 0.41 mL and 0.33 mL (2×) and 0.32 mL and 0.3 mL
same,"Total Footpad Thickness, Day of Study 19","[4]; group mean, n 10",0.42 mL
same,"Total Footpad Thickness, Day of Study 19",[4]; individual animals (A# 1-10),0.61 mL and 0.43 mL and 0.4 mL and 0.47 mL (2×) and 0.32 mL and 0.42 mL and 0.35 mL and 0.33 mL and 0.38 mL
same,"Total Footpad Thickness, Day of Study 22","[4]; group mean, n 10",0.38 mL
same,"Total Footpad Thickness, Day of Study 22",[4]; individual animals (A# 1-10),0.55 mL and 0.41 mL (2×) and 0.34 mL (2×) and 0.39 mL and 0.36 mL (3×) and 0.32 mL
same,% Disease Suppression,"[4]; group mean, n 10",61.66%
same,% Disease Suppression,[4]; individual animals (A# 1-10),16.3% and 74.3% and 109.8% and 83.9% and 52.3% and 49.7% and 69.4% and 70.2% and 29.0% and 63.7%
same,Total Disease Burden (AUC),"[4]; group mean, n 10",0.74
same,Total Disease Burden (AUC),[4]; individual animals (A# 1-10),1.62 and 0.56 and −0.19 and 0.35 and 0.92 and 0.97 and 0.59 and 0.58 and 1.37 and 0.70
same,Maximum Δ Mean Volume,"[4]; mean combined foot pad volume, day 8 vs median day of maximal swelling, vehicle 0.21",0.13** ml
same,% Disease Suppression (vs Vehicle),[4]; percent decrease in total disease burden relative to vehicle,61.7%
